# Experimental data taken from patent publication US10428022B2, “Iminosugars useful for the treatment of viral diseases” (Emergent Virology, LLC, priority 2014, dated 2019).
# Experiments:
# [1] = CellTiter-Glo Luminescent Cell Viability Assay (cytotoxicity); type: cell-based; conditions: African green monkey; Vero cells, 3-5 days in culture
# Description: Cytotoxicity: To determine the cytotoxicity of the compounds in Vero cells, the CellTiter-Glo Luminescent Cell Viability Assay (Promega) was used. The compounds were tested at 6-8 concentrations in three replicates. Control conditions include vehicle-only treated cells to set 100% surviving cells, DMSO-killed cells as a cell death-inducing control, and no cells for 0% surviving cells. Cytotoxicity is measured after 3-5 days in culture by the change/decrease in relative light units (RLUs) in each sample which reflects the amount of ATP present (an indicator of metabolically active cells).
# The 50% cellular cytotoxicity (CC50) value is calculated based on the RLUs of the compound-treated samples using vehicle-only control as 100% survival and no cells as 0% survival.
# [2] = tested on: dengue virus (DENV serotype 2, strain New Guinea C); experiment: microbe, parasite or virus in culture; type: cell-based; conditions: DENV2, 120 h, virus yield reduction in Vero cells, 5 days
# [3] = tested on: Venezuelan Equine Encephalitis Virus (VEEV TC-83 stain); experiment: microbe, parasite or virus in culture; type: cell-based; conditions: Vero, 72 h, read-out: IC50 Venezuelan Equine Encephalitis TC-83 (VEEV)
# [4] = Aqueous solubility in acidified water; type: physicochemical; conditions: aqueous buffer; in acidified water pH~4
# [5] = In vivo pharmacokinetics in mouse; conditions: plasma
# [6] = In vivo pharmacokinetics in guinea pig; conditions: plasma
# [7] = Aqueous solubility in gastric and intestinal fluids (Cerep); type: physicochemical
# Description: (§1) Assays for drug likeness (solubility, microsomal stability, plasma protein binding, A-B efflux, cytochrome CYP450 3A4, hERG binding, and Ames) were carried out by Cerep (Washington USA, and France) using standard protocols for in vitro testing. Assay protocols are provided online at http://www.cerep.fecerep/users/pages/catalog/profiles/catalog.asp and Cerep standard procedures and concentrations were used for all assays.
# [8] = In vivo pharmacokinetics and oral bioavailability in rat; design: species or system male Sprague-Dawley rats; conditions: male, Sprague-Dawley, plasma
# Description: In vivo pharmacokinetic parameters and oral bioavailability for UV-0060 was determined by Eurofins (Cerep Panlabs, Taiwan). A pharmacokinetic study following oral and intravenous administrations was performed using male Sprague-Dawley rats. Test article was formulated in 2% DMSO/0.9% NaCl and administered orally (PO) at 10 mg/kg and intravenously (IV) at 5 mg/kg to groups of 3 rats. The dosing volume was 10 mL/kg for PO and 5 mL/kg for IV. Rats weighing 220±20 g were used. Blood samples were harvested at 3, 10, 30, 60, 120, 240, 360, 720 and 1440 minutes after intravenous injection and at 10, 30, 60, 120, 240, 360, 720 and 1440 minutes after oral administration. Blood was collected in tubes coated with lithium heparin, mixed gently, then kept on ice and centrifuged at 2,500×g for 15 minutes at 4° C., within 1 hour of collection. The plasma was harvested and kept frozen at −80° C. until further processing. A plasma calibration curve from 3-10000 ng/mL was generated using oxybutynin as internal standard. Aliquots of drug-free plasma were spiked with the test compound at the specified concentration levels. Plasma samples were processed using acetonitrile precipitation and analyzed by HPLC/MS/MS. The spiked plasma samples were processed together with the unknown plasma samples using the same procedure. HPLC/MS/MS analysis was carried out with electrospray ionization in positive ion mode with multiple reaction monitoring. HPLC column was Agilent Poroshell 120 EC-C18 column 2.7 μm (3.0×50 mm, 23° C.) with an acetonitrile/water/formic acid mobile phase gradient. Standards data were fitted linearly with a 1/x2 weighting.
# [9] = Human microsomal stability (Cerep); type: in vitro ADME; conditions: human microsomes; read-out: Human microsomal stability: t½
# Description: as §1
# [10] = Human plasma protein binding (Cerep); type: in vitro ADME
# Description: as §1
# [11] = A-B Efflux (Caco2) (Cerep); type: in vitro ADME; conditions: human, Caco-2
# Description: as §1
# CYP3A4 = molecular target: T1, CYP3A4 (Homo sapiens, UniProt P08684); experiment: CYP450 3A4 inhibition (Cerep); type: in vitro ADME
# T1 construct: Cerep
# Description: as §1
# Ames (Cerep) = conditions: with or without S9 activation
# Description: as §1
# [12] = Mouse, single dose, tested IV, oral routes
# [13] = Guinea pig, single dose, tested IV, SQ, IM routes
# T1 sequence (P08684 whole entry): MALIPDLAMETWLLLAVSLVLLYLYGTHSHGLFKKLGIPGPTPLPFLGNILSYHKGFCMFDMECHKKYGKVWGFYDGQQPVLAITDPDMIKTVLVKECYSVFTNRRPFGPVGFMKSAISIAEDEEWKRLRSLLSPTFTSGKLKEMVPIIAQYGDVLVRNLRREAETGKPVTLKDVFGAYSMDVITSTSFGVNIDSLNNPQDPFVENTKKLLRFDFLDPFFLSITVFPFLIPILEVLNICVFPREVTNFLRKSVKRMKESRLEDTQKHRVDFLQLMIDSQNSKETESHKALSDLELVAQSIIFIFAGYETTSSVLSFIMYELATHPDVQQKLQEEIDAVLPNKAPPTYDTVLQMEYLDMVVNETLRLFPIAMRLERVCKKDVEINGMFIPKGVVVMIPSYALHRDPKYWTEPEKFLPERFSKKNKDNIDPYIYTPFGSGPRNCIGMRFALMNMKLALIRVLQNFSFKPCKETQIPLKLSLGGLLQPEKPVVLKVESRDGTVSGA
smiles,measurement,setting,value
"OC[C@@H]1[C@@H](O)[C@H](O)[C@@H](O)CN1CCCCCCCCc1ccco1 [UV-30, (2R,3R,4R,5S)-1-(8-(furan-2-yl)octyl)-2-(hydroxymethyl)piperidine-3,4,5-triol]",CC50,[1],≥ 125 µM
same,IC50,[2],7 µM
same,IC50,[3],14 µM
[N-]=[N+]=Nc1ccc(NCCCCCCN2C[C@H](O)[C@@H](O)[C@H](O)[C@H]2CO)c([N+](=O)[O-])c1 [UV-5],solubility,[4],> 112 mg/mL
same,half-life,"[5]; mouse, Mouse, single dose, tested IV, oral routes, read-out: T1/2",4.09 to 8.96 h
same,half-life,"[5]; mouse, mice, read-out: Plasma t½",~4 h
same,bioavailability,"[5]; mouse, mice, oral",80%
same,Cmax,[5]; [12],14.4 µg/mL
same,Tmax,[5]; [12],1 h
same,clearance,[6]; guinea pig,14 L/h/kg
same,half-life,"[6]; guinea pig, Guinea pig, single dose, tested IV, SQ, IM routes, read-out: T½",1.62 to 3.99 h
same,half-life,"[6]; guinea pig, guinea pig, read-out: Plasma t½",1.62 h
same,Vd,"[6]; guinea pig, read-out: Vss",16.9 L/kg
same,bioavailability,"[6]; other: IM, Guinea pig, IM, SC",187 to 198%
same,Cmax,[6]; [13],2.32 to 3.79 µg/mL
same,Tmax,[6]; [13],0.75 to 1.13 h
O=[N+]([O-])c1cc(-n2nccn2)ccc1NCCCCCCN1C[C@H](O)[C@@H](O)[C@H](O)[C@H]1CO [UV-0060],CC50,[1],245 µM
same,IC50,[2],5 µM
same,IC50,[3],94.1 µM
same,solubility,"[7]; gastric fluid, simulated gastric fluid, read-out: Aqueous solubility in gastric fluid",> 200 µM
same,solubility,"[7]; intestinal fluid, fassgf or other biorelevant, read-out: Aqueous solubility in intestinal fluid",> 200 µM
same,bioavailability,[8]; PO 10 mg/kg vs IV 5 mg/kg,6%
same,clearance,"[8]; single dose, IV 5 mg/kg",4.37 L/h/kg
same,half-life,"[8]; single dose, IV 5 mg/kg, read-out: T1/2 (IV)",2.8 h
same,Tmax,"[8]; single dose, PO 10 mg/kg",2.2 h
same,half-life,"[8]; single dose, PO 10 mg/kg, read-out: T1/2 (PO)",2.2 h
same,half-life,[9],> 1 h
same,fraction unbound at 10 microM,[10],0.12
same,Papp A→B,[11],~3 nm/s
same,inhibition at 10 µM,CYP3A4,0.2%
same,Ames,Ames (Cerep),Ames: negative with or without S9
